Data taken from publication PMC12806454 (Quantitative Biology, 2024).

Tests used:
[1] = rat, in vivo, iv; cited from earlier work
[2] = biological target: Mpro of HKU1 (Human coronavirus HKU1, UniProt P0C6X2); test: biochemical
[3] = biological target: Mpro of NL63 (Human coronavirus NL63, UniProt P0C6X5); test: biochemical
[4] = biological target: Mpro of SARS-CoV-1 (Severe acute respiratory syndrome coronavirus, UniProt P0C6X7); test: biochemical
[5] = biological target: Mpro of OC43 (Human coronavirus OC43, UniProt P0C6X6); test: biochemical
[6] = biological target: Mpro of 229E (Human coronavirus 229E, UniProt P0C6X1); test: biochemical
[7] = biological target: Mpro of MERS (Middle East respiratory syndrome-related coronavirus, UniProt K9N7C7); test: biochemical
Mpro of MERS, sequence (K9N7C7 3248-3553 limits assumed): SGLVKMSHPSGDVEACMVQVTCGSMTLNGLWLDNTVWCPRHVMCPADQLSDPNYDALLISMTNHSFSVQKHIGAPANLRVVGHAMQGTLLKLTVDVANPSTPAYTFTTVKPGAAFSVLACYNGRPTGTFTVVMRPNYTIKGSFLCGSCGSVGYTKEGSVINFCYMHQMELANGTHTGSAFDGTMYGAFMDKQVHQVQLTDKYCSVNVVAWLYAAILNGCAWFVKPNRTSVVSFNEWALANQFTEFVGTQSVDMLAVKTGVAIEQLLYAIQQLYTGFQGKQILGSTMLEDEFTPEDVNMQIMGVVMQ

Mpro of NL63, sequence (P0C6X5 2940-3242): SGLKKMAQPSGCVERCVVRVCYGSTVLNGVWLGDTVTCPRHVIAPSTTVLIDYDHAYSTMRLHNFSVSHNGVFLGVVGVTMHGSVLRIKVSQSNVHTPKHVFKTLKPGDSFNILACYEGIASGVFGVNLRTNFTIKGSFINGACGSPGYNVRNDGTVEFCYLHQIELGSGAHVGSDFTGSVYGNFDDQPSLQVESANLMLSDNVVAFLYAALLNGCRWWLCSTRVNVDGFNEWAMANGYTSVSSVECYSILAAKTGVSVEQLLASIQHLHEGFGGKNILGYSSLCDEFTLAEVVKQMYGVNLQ
Mpro of HKU1, sequence (P0C6X2 3335-3637): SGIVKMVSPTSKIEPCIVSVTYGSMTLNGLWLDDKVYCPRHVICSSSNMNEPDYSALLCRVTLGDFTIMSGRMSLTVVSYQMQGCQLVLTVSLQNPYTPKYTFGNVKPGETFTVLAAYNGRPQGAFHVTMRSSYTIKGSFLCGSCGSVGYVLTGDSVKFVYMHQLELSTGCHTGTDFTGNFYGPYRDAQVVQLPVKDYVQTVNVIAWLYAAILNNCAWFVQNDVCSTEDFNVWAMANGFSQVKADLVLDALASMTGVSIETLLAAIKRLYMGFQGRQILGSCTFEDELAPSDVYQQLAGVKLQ
Mpro of 229E, sequence (P0C6X1 2966-3267): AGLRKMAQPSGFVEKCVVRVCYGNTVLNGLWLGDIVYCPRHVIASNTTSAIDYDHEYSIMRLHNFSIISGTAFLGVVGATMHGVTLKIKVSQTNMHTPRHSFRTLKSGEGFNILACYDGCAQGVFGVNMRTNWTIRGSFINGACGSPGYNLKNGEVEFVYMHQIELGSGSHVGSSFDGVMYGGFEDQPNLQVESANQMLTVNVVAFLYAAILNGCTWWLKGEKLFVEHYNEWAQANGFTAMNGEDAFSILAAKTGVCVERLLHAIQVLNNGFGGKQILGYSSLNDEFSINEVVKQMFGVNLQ
Mpro of OC43, sequence (P0C6X6 3247-3549): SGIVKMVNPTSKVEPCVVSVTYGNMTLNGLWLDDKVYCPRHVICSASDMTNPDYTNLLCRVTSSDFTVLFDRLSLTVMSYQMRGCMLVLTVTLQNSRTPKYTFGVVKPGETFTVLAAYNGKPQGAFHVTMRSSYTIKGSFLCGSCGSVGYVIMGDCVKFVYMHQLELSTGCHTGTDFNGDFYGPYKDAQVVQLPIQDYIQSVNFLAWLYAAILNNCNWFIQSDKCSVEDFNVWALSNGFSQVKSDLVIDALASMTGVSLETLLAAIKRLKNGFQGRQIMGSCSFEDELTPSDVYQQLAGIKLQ

## Cn1cnc(Cn2c(=O)[nH]/c(=N\c3cc4cn(C)nc4cc3Cl)n(Cc3cc(F)c(F)cc3F)c2=O)n1 [Ensitrelvir, ensitrelvir]
[1]
  half-life: 2.4 h

## CC(C)CC(NC(=O)OCc1ccccc1)C(=O)NC(CC1CCNC1=O)C(O)S(=O)(=O)O (centres unmarked) [GC376]
[2]
  IC50: 73.3 nM
[3]
  IC50: 438 nM

## O=C(NC1CCCC1)C(=O)[C@H](C[C@@H]1CCNC1=O)NC(=O)[C@@H]1[C@H]2CCC[C@H]2CN1C(=O)[C@@H](NC(=O)C(F)(F)F)C1CCCCC1 [Leritrelvir, leritrelvir]
[4]
  IC50: 73 nM
[2]
  IC50: 52.3 nM
[5]
  IC50: 53.2 nM
[6]
  IC50: 101 nM
[3]
  IC50: 272 nM
[1]
  half-life: 4.8 h
[7]
  IC50: 945 nM

## CC(C)(C)[C@H](NC(=O)C(F)(F)F)C(=O)N1C[C@H]2[C@@H]([C@H]1C(=O)N[C@H](C#N)C[C@@H]1CCNC1=O)C2(C)C [Nirmatrelvir, nirmatrelvir]
[1]
  half-life: 0.5 h
